Structures can show the parent of a compound that is named as a salt.
What was measured:
[1] = system: bacterial strains that express KPC β-lactamases; assay: Synergy MIC / standard BLI potentiation MIC assay, strains expressing KPC β-lactamases; type: cell-based; details: for at least one KPC strain and/or a better spectrum of activity against KPC strains than Avibactam; in the presence of a β-lactam
Method: (§1) Unless otherwise indicated, the activity of the BLI compounds can be described by the MIC value obtained from a Synergy MIC assay or a BLI potentiation assay (e.g as described herein), both of which are run in the presence of a β-lactam.
(§2) The experimental protocol was performed according to Clinical and Laboratory Standards Institute (CLSI) guidelines with modifications as described below (CLSI guidelines can be derived from the CLSI document M07-A9 published in January 2012: “Methods for Dilution Antimicrobial Susceptibility Tests for Bacteria That Grow Aerobically; Approved Standard-Ninth Edition”).
(§3) To prepare for MIC testing, frozen glycerol stocks of clinical isolates (Klebsiella pneumoniae, Eschericia coli, Enterobacter spp, Citrobacter spp, or Pseudomonas aeruginosa) were used to streak for isolated colonies on rich, non-selective, tryptic soy agar containing 5% sheep's blood (TSAB). Frozen glycerol stocks of laboratory engineered, isogenic E. coli strains, which contain cloned β-lactamase expressing plasmids were used to streak for isolated colonies on rich, selective LB agar supplemented with 25 μg/mL tetracycline to maintain the plasmid. All strains were incubated at 37° C. for 18-24 hrs.
(§4) On the day of testing, primary cultures were started by scraping off 5-10 colonies from the TSAB plates containing clinical strains or the tetracycline supplemented LB plates containing engineered strains. The clinical strain material was suspended in ˜5 mL of cation adjusted Mueller Hinton Broth (CAMHB) in 14 mL culture tubes. The engineered strain material was suspended in CAMHB (supplemented with 25 μg/mL tetracycline) in 14 mL culture tubes. All strains were incubated at 37° C. with aeration (200 rpm) for ˜2 hrs until the optical density at 600 nm (OD600) was ≧0.1.
(§5) The two compound components of the assay were each diluted in CAMHB and added to the 96-well broth microdilution assay plates. 50 μL of the β-lactam was added to each well of the assay plate in 2-fold dilutions with final concentrations ranging from 128 to 0.13 μg/mL. 25 μL of the BLI compound was added to all wells in the broth microdilution plates at a final concentration of 4 μg/mL. Inoculum cultures were prepared by standardizing the primary cultures to OD600=0.1 and then adding 20 μL of the adjusted primary culture per 1 mL CAMHB for clinical strains or CAMHB (supplemented with tetracycline at 100 μg/mL) for engineered strains, so that the final inoculum density was ˜10^5 colony forming units per milliliter. Diluted inoculum cultures were used to inoculate 25 μl, per well in 96-well broth microdilution assay plates. The final volume of each well was 100 μL and contained a β-lactam at different concentrations, a BLIcompound at 4 μg/mL concentration, the bacterial culture at an OD600 of approximately 0.001 and when necessary tetracycline at 25 μg/mL.
(§6) Plates were incubated for 18-20 hours at 37° C. with aeration (200 rpm). Following incubation, growth was confirmed visually placing plates over a viewing apparatus (stand with a mirror underneath) and then OD600 was measured using a SpectraMax 340PC384 plate reader (Molecular Devices, Sunnyvale, Calif.). Growth was defined as turbidity that could be detected with the naked eye or achieving minimum OD600 of 0.1. MIC values were defined as the lowest concentration producing no visible turbidity.
(§7) The synergy MIC (sMIC) assay determines the concentration of the BLI required to potentiate the activity of a fixed concentration of a β-lactam antibiotic against β-lactamase producing bacterial strains. The experimental protocol was performed according to Clinical and Laboratory Standards Institute (CLSI) guidelines with modifications as described below (CLSI guidelines can be derived from the CLSI document M07-A9 published in January 2012: “Methods for Dilution Antimicrobial Susceptibility Tests for Bacteria That Grow Aerobically; Approved Standard-Ninth Edition”). […]

[2] = system: bacterial strains that express the class D cephalosporinase OXA-15; assay: Synergy MIC / standard BLI potentiation MIC assay, strains expressing OXA-15;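 note: more active means a lower MIC or sMIC than Avibactam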; type: cell-based, E. coli; details: in the presence of a β-lactam; comparator Avibactam (CCC)
Method: as §1, §2, §3, §4, §5, §6, §7

| Structure (SMILES) | activity against bacterial strains that express KPC β-lactamase compared with Avibactam [1] | activity against bacterial strains that express OXA-15 β-lactamase compared with Avibactam [2] |
| --- | --- | --- |
| O=C1N2C[C@@H](CC[C@H]2c2nnc(C3CCNCC3)o2)N1OS(=O)(=O)O [Compound 711, (2S,5R)-7-oxo-2-(5-(piperidin-4-yl)-1,3,4-oxadiazol-2-yl)-1,6-diazabicyclo[3.2.1]octan-6-yl hydrogen sulfate] | more active than Avibactam | more active than Avibactam |
| NCCCc1nnc([C@@H]2CC[C@@H]3CN2C(=O)N3OS(=O)(=O)O)o1 [Compound 720, (2S,5R)-2-(5-(3-aminopropyl)-1,3,4-oxadiazol-2-yl)-7-oxo-1,6-diazabicyclo[3.2.1]octan-6-yl hydrogen sulfate] | more active than Avibactam | more active than Avibactam |
| N=C(N)NCc1nnc([C@@H]2CC[C@@H]3CN2C(=O)N3OS(=O)(=O)O)s1 [Compound 721, (2S,5R)-2-(5-(guanidinomethyl)-1,3,4-thiadiazol-2-yl)-7-oxo-1,6-diazabicyclo[3.2.1]octan-6-yl hydrogen sulfate] | more active than Avibactam | more active than Avibactam |
| CNCCc1nnc([C@@H]2CC[C@@H]3CN2C(=O)N3OS(=O)(=O)O)o1 [Compound 722, (2S,5R)-2-(5-(2-(methylamino)ethyl)-1,3,4-oxadiazol-2-yl)-7-oxo-1,6-diazabicyclo[3.2.1]octan-6-yl hydrogen sulfate] | more active than Avibactam | more active than Avibactam |
| N=C(N)NCC1(c2nnc([C@@H]3CC[C@@H]4CN3C(=O)N4OS(=O)(=O)O)o2)CC1 [Compound 723, (2S,5R)-2-(5-(1-(guanidinomethyl)cyclopropyl)-1,3,4-oxadiazol-2-yl)-7-oxo-1,6-diazabicyclo[3.2.1]octan-6-yl hydrogen sulfate] | more active than Avibactam | more active than Avibactam |
| NC1(Cc2nnc([C@@H]3CC[C@@H]4CN3C(=O)N4OS(=O)(=O)O)o2)CC1 [Compound 724, (2S,5R)-2-(5-((1-aminocyclopropyl)methyl)-1,3,4-oxadiazol-2-yl)-7-oxo-1,6-diazabicyclo[3.2.1]octan-6-yl hydrogen sulfate] | more active than Avibactam | more active than Avibactam |
| O=C1N2C[C@@H](CC[C@H]2c2nnc(CNC3CNC3)o2)N1OS(=O)(=O)O [Compound 726, (2S,5R)-2-(5-((azetidin-3-ylamino)methyl)-1,3,4-oxadiazol-2-yl)-7-oxo-1,6-diazabicyclo[3.2.1]octan-6-yl hydrogen sulfate] | more active than Avibactam | more active than Avibactam |
| N[C@H]1C[C@H](c2nnc([C@@H]3CC[C@@H]4CN3C(=O)N4OS(=O)(=O)O)o2)C1 [Compound 727, (2S,5R)-2-(5-((1r,3S)-3-aminocyclobutyl)-1,3,4-oxadiazol-2-yl)-7-oxo-1,6-diazabicyclo[3.2.1]octan-6-yl hydrogen sulfate] | more active than Avibactam | more active than Avibactam |
| N[C@H]1C[C@@H](Cc2nnc([C@@H]3CC[C@@H]4CN3C(=O)N4OS(=O)(=O)O)o2)C1 [Compound 728, (2S,5R)-2-(5-(((1s,3R)-3-aminocyclobutyl)methyl)-1,3,4-oxadiazol-2-yl)-7-oxo-1,6-diazabicyclo[3.2.1]octan-6-yl hydrogen sulfate] | more active than Avibactam | more active than Avibactam |
| N[C@@H]1CC[C@H](c2nnc([C@@H]3CC[C@@H]4CN3C(=O)N4OS(=O)(=O)O)o2)C1 [Compound 729, (2S,5R)-2-(5-((1S,3R)-3-aminocyclopentyl)-1,3,4-oxadiazol-2-yl)-7-oxo-1,6-diazabicyclo[3.2.1]octan-6-yl hydrogen sulfate] | more active than Avibactam | more active than Avibactam |
| N=C(N)NCC(O)Cc1nnc([C@@H]2CC[C@@H]3CN2C(=O)N3OS(=O)(=O)O)o1 (stereo partly drawn) [Compound 730, (2S,5R)-2-(5-(3-guanidino-2-hydroxypropyl)-1,3,4-oxadiazol-2-yl)-7-oxo-1,6-diazabicyclo[3.2.1]octan-6-yl hydrogen sulfate] | more active than Avibactam | more active than Avibactam |
| N=C(N)NC[C@@H](O)c1nnc([C@@H]2CC[C@@H]3CN2C(=O)N3OS(=O)(=O)O)o1 [Compound 731, (2S,5R)-2-(5-((R)-2-guanidino-1-hydroxyethyl)-1,3,4-oxadiazol-2-yl)-7-oxo-1,6-diazabicyclo[3.2.1]octan-6-yl hydrogen sulfate] | more active than Avibactam | more active than Avibactam |
| N=C(N)NC[C@H](O)c1nnc([C@@H]2CC[C@@H]3CN2C(=O)N3OS(=O)(=O)O)o1 [Compound 732, (2S,5R)-2-(5-((S)-2-guanidino-1-hydroxyethyl)-1,3,4-oxadiazol-2-yl)-7-oxo-1,6-diazabicyclo[3.2.1]octan-6-yl hydrogen sulfate] | more active than Avibactam | more active than Avibactam |
| CNCCCc1nnc([C@@H]2CC[C@@H]3CN2C(=O)N3OS(=O)(=O)O)o1 [Compound 734, (2S,5R)-2-(5-(3-(methylamino)propyl)-1,3,4-oxadiazol-2-yl)-7-oxo-1,6-diazabicyclo[3.2.1]octan-6-yl hydrogen sulfate] | more active than Avibactam | more active than Avibactam |
| NCCCCc1nnc([C@@H]2CC[C@@H]3CN2C(=O)N3OS(=O)(=O)O)o1 [Compound 735, (2S,5R)-2-(5-(4-aminobutyl)-1,3,4-oxadiazol-2-yl)-7-oxo-1,6-diazabicyclo[3.2.1]octan-6-yl hydrogen sulfate] | more active than Avibactam | more active than Avibactam |
| O=C1N2C[C@@H](CC[C@H]2c2nnc(CCNCCO)o2)N1OS(=O)(=O)O [Compound 736, (2S,5R)-2-(5-(2-((2-hydroxyethyl)amino)ethyl)-1,3,4-oxadiazol-2-yl)-7-oxo-1,6-diazabicyclo[3.2.1]octan-6-yl hydrogen sulfate] | more active than Avibactam | more active than Avibactam |
